# System: subchronic PCP-induced impairment in cognition memory
# Assay: Rodent novel object recognition (NOR) assay in phencyclidine-induced cognitive deficits modeling schizophrenia
# Format: in vivo, rat
# Settings: PCP-treated rats
# Description: The aim of this study was to investigate the ability of the compounds of the invention to improve subchronic PCP-induced impairment in cognition memory using the NOR task in the rat, a paradigm of relevance to cognition in schizophrenia. Adult male Sprague-Dawley rats (250-350 g; Harlan, USA) were used for the experiments. Animal were acclimated to the facility for 7 days prior to experimentation. Seven groups of 14 animals per group were used for the experiment. One group of animals received vehicle (0.9% saline twice daily) and the remaining six groups received PCP (2.5 mg/kg, s.c. twice daily) for 7 days, followed by 5-days drug free. On the test day, the animals were allowed to acclimate to the testing room for 30 min prior to initiation of experiments. Experiments were carried out in a white plexiglass chamber, designated as experimental arena. The arena was placed in a dark experimental room that was illuminated by a halogen lamp, providing a dim light to the arena.
# Animals were placed in the arena for a 5 minute period to freely explore the test chamber in the absence of objects (habituation). Animals were then returned to their home cage immediately upon completion of habituation for a 120 min period. (1R,3R,5S)-8-Methyl-8-azabicyclo[3.2.1]octan-3-yl 1-(2,2,2-trifluoroethyl)-1H-indole-3-carboxylate (0.1, 1, 10 mg/kg s.c.), or vehicle (veh, saline) was administered 120 min prior to T1 and galantamine (5 mg/kg, i.p.) was administered 30 min prior to T1. Animals were returned to the arena which contained two identical objects (plastic balls) placed at one end of the arena (acquisition, T1), and allowed to explore for a 5 min period. The time spent exploring the two objects was recorded. Animals were once again returned to the home cage for a period of 120 min (ITI).
# ITI was followed by the retention phase (T2) where one of the objects presented in the first trial was replaced by a novel object and animals were allowed to explore for an additional 5 min period. Again, the time spent exploring the two objects was recorded.
# For the retention phase, the differences between the time spent exploring the familiar object and the novel object were examined. All sessions were recorded and scored blindly for the time exploring objects. Exploration is defined as touching the object or directing nose towards object at a distance less that 2 cm. A minimal exploration criterion was used such that only animals with exploration time of greater than 5 seconds per object were included.
# Comparisons of all treatment groups were conducted using a one-way ANOVA followed by a Bonferroni's post hoc test for multiple comparisons.
SMILES,"discrimination between familiar and novel objects (galantamine 5 mg/kg i.p., 2 h ITI)",discrimination between familiar and novel objects (0.1 mg/kg s.c.),discrimination between familiar and novel objects (1 mg/kg s.c.),discrimination between familiar and novel objects (10 mg/kg s.c.)
"COc1ccc2c3c1O[C@H]1C[C@@H](O)C=C[C@@]31CCN(C)C2 [Galantamine, galantamine, reference compound]",statistically significant discrimination,,,
CN1[C@@H]2CC[C@H]1C[C@@H](OC(=O)c1cn(CC(F)(F)F)c3ccccc13)C2,,did not demonstrate a statistically significant discrimination,demonstrated a statistically significant discrimination,demonstrated a statistically significant discrimination

# From patent US9695195B2, “5-HT3 receptor antagonists” (Takeda Pharmaceutical Company Limited, priority 2012, dated 2017)
